Reference: patent publication US9592228B2, “Treatment of inflammation using alpha 7 receptor-binding agonists” (THE FEINSTEIN INSTITUTE FOR MEDICAL RESEARCH, priority 2002, dated 2017)
Values joined by “and” are separate entries in the source; they are usually repeats but may differ in a detail not shown here. Equal entries are not always repeated. Where two headings read alike, the source gives them in different places.

Tests used:
[1] = test system: LPS induced TNF-α release from murine RAW 264.7 macrophage-like cells; assay: cells; assay type: cell-based
[2] = test system: TNF production by LPS-stimulated wild type peritoneal macrophages; assay: TNF production by wild type peritoneal macrophages; assay type: cell-based, mouse; details: 4 h, ELISA, mean ± s.e.m., n = 8
[3] = test system: TNF production by LPS-stimulated nicotinic acetylcholine receptor α7 subunit knockout peritoneal macrophages; assay type: cell-based, mouse
[4] = test system: Balb/c mice; details: mouse, in vivo
[5] = test system: C57 B/6 mice; details: mouse, in vivo
[6] = test system: C57 B/6 mice; details: mouse, in vivo; remark: listed apart in the source
[7] = test system: macrophages; details: data not shown
[8] = target: α-bungarotoxin-binding nicotinic receptors on primary human macrophages (Homo sapiens, UniProt P36544)
[9] = agonist 1 μM added 5-10 min before LPS (100 ng/ml)
[10] = agonist 10 μM added 5-10 min before LPS (100 ng/ml)

Chain of α-bungarotoxin-binding nicotinic receptors on primary human macrophages (P36544 23-502): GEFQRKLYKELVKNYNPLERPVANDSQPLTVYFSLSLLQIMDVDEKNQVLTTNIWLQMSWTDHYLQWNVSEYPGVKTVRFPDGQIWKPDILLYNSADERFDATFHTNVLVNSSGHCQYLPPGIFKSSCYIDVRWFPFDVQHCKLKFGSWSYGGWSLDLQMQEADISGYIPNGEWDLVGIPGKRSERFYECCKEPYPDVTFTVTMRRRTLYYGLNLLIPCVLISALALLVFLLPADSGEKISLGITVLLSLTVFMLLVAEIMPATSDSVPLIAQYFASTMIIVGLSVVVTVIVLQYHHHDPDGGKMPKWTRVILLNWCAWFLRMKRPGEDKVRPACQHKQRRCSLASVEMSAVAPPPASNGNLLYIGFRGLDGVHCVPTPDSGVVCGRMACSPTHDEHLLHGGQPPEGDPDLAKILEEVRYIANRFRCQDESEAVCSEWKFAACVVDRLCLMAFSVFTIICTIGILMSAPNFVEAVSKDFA

Compound: O=C1NCC2(CN3CCC2CC3)O1 (single isomer, unassigned; (-)) [Compound (VII), (−)-spiro[1-azabicyclo[2.2.2]octane-3,5′-oxazolidin-2′-one]]
- TNF-α release from RAW 264.7 cells at the higher concentrations [1]: inhibit TNF-α release
- decrease of TNF-α release compared to control cells [1]: more than four times

Compound: CC(=O)OCC[N+](C)(C)C [Ach, acetylcholine]
- TNF [2, 9]: 10.3 ± 1.1 ng/mL
- TNF [2, 10]: 5.7 ± 0.9 ng/mL
- TNF [3]: 20.4 ± 3.8 ng/mL and 21.4 ± 2.4 ng/mL

Compound: COc1ccc(/C=C2\CCCN=C2c2cccnc2)c(OC)c1 [Compound (V), 3-2,4-dimethoxybenzylidene anabaseine]
- mice survived on Day 14 [4]: 91%
- inhibition of TNF-α release [1]: dose dependently inhibits

Compound: COc1cc(O)ccc1/C=C1\CCCN=C1c1cccnc1 [Compound (VI), 3-(4-hydroxy-2-methoxybenzylidene)anabaseine]
- mice survived on Day 14 [4]: 82%
- percent inhibition of TNF-α [1]: dose dependently inhibits
- IC50 ([1]; Mus musculus, RAW264.7, read-out: estimated IC50, inhibition of TNF-α): ~900 nM
- decrease of the level of circulating TNF-α compared to vehicle control [5]: approximately 50%
- colon length compared to control mice [6]: slightly greater
- colon weight (wet weight) compared to control condition [6]: decreased

Compound: CN1CCCC1c1cccnc1 (stereo not shown) [nicotine]
- calcium influx [7]: induces transient calcium influx
- TNF [2, 9]: 5.2 ± 0.9 ng/mL
- TNF [2, 10]: 7.3 ± 1.0 ng/mL
- effect of pretreatment on intensity of α-bungarotoxin binding [8]: markedly reduced
- inhibition of TNF-α release ([1]; 0.001-100 uM added five minutes before LPS (500 ng/ml), 4 hours, ELISA, FIG. 7): dose dependently inhibits
- inhibition of LPS-induced TNF release in RAW264.7 ([1]; data not shown): significantly inhibit
- TNF [3]: 17.8 ± 0.6 ng/mL and 17.4 ± 2.9 ng/mL
- TNF production by α7 knockout macrophages in the presence of the agonist [3]: produced TNF normally

Compound: α-bungarotoxin
- binding of α-bungarotoxin on the macrophage surface [8]: Strong binding
